Laboratory results reported in patent publication US11207296B2, “XPA inhibitor compounds and their use” (INDIANA UNIVERSITY RESEARCH AND TECHNOLOGY CORPORATION, priority 2017, dated 2021).

Target: full length XPA protein (Homo sapiens, UniProt P23025)
Assay: biochemical
Settings: IC50 (μM), EMSA, 32P labeled 30 bp duplex DNA containing a single 1,2 dGpG cisplatin adduct, several values in a cell = separate determinations
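Also: XPA expressed in Sf9 cells, preincubated with compound on ice before adding DNA, complex resolved on native polyacrylamide gel at 4 °C, PhosphorImager band intensity, binding inhibition versus DMSO.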
Method: Purified XPA (lanes 2-18) was mixed with DMSO (Lane 2, C) control or the indicated compound at a concentration of 50 μM (Lanes 3-18). ^32P labeled ds-platinum damaged DNA was added and incubation continued for 30 minutes on ice. The products were separated on a 6% native gel by electrophoresis at 4° C. Products were detected and quantified by PhosphorImager analysis.
EMSA was carried out using previously described procedure with the following modification. Reactions were performed in volume of 20 μL, containing a ^32P labeled 30 bp duplex DNA containing a single 1,2 dGpG cisplatin adduct. Compounds were pre-incubated on ice with the indicated amount of XPA and products separated by electrophoresis on a non-denaturing 6% polyacrylamide gel. Gels were cooled, loaded and electrophoresis performed at 4° C. Gels were used to expose a Phosphorlmager screen and band intensity determined and % binding and inhibition calculated as we have previously described.

Sequence of full length XPA protein (P23025 whole entry): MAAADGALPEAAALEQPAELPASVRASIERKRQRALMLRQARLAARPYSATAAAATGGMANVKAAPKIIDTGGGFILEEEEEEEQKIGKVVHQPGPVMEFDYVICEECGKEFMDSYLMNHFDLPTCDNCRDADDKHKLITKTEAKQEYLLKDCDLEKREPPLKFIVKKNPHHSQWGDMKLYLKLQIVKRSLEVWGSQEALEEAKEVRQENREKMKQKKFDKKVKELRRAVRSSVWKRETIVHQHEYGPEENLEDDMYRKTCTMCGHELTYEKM

| SMILES | IC50 [µM] |
| --- | --- |
| O=C(O)c1cccc(N2N=C(C(F)(F)F)C(Cc3ccc(-c4ccc(Cl)c(C(=O)NCC5CC5)c4)o3)C2=O)c1 (centres unmarked) [NG-04-309, 3-(4-((5-(4-chloro-3-((cyclopropylmethyl)carbamoyl)phenyl)furan-2-yl)methyl)-5-oxo-3-(trifluoromethyl)-4,5-dihydro-1H-pyrazol-1-yl)benzoic acid] | 40 |
| CC1=NN(c2cccc(C(=O)O)c2)C(=O)/C1=C\c1ccc(-c2ccc(Cl)c(C(=O)NC3CCOCC3)c2)o1 [Compound 34g, (Z)-3-(4-((5-(4-Chloro-3-((tetrahydro-2H-pyran-4-yl)carbamoyl)phenyl)furan-2-yl)methylene)-3-methyl-5-oxo-4,5-dihydro-1H-pyrazol-1-yl)benzoic acid] | 40 |
| COc1cccc(NC(=O)c2cc(-c3ccc(CC4C(=O)N(c5ccc(C(=O)O)cc5)N=C4C)s3)ccc2Cl)c1 (centres unmarked) [NG-03-238, 4-(4-((5-(4-Chloro-3-((3-methoxyphenyl)carbamoyl)phenyl)thiophen-2-yl)methyl)-3-methyl-5-oxo-4,5-dihydro-1H-pyrazol-1-yl)benzoic acid] | 45 |
| COc1cccc(NC(=O)c2cc(-c3ccc(CC4C(=O)N(c5cccc(C(=O)O)c5)N=C4C)s3)ccc2Cl)c1 (centres unmarked) [NG-03-207, 3-(4-((5-(4-chloro-3-((3-Methoxyphenyl)carbamoyl)phenyl)thiophen-2-yl)methyl)-3-methyl-5-oxo-4,5-dihydro-1H-pyrazol-1-yl)benzoic acid] | 12.5 |
| C=CCCCc1cccc(-c2ccc(/C=C3/C=NN(c4cccc(C(=O)O)c4)C3=O)o2)c1 [Compound 2922] | 3 |
